Data: patent US11988734B2, “Method and application for measuring the intracellular water transmembrane efflux rate, and measurement method and system for magnetic resonance imaging biomarker of glioma” (ZHEJIANG UNIVERSITY, priority 2022, dated 2024)
Where “and” joins values, the source holds several entries; their conditions need not be identical. Equal values may be shown once. Entries after “also recorded” stand apart in the source; their conditions may differ.

How the values were obtained:
C6 cells [1] = assay: Water exchange DCE-MRI measurement of intracellular water efflux rate constant kio in C6 cells; format: cell-based; conditions: for kio: 50 μM TMZ, control 10.9±0.7; for decrease of kio vs control: TMZ
Method: (§1) C6 cells were treated with TMZ (50 μM) and treated with 50 μM TMZ dissolved in 0.1% DMSO […] or 0.1% DMSO in complete culture medium. The magnetic resonance parameters kio and physiological information (cell morphology, AQP4 expression, cell activity and cell migration distance) were obtained on the third and seventh days of TMZ (50 μM) treatment.
(§2) In order to obtain the cell samples for MRI, U87MG (0.5˜1×10^5) or C6 (1˜2×10^6) cell lines were first washed with DPBS, disassociated by adding 1 mL of 0.25% Trypsin-EDTA solution to 60 mm dish and incubating for 0.5 to 1.0 min, and then resuspended with 2 mL PBS (or PBS supplemented with 5 mM Gadoteridol). After centrifuging the cell sample with relative centrifugal force of 150 g at 4° C. for 5 min, the sample was resuspended in a custom MR compatible glass sample tube (diameter 5 mm×length 20 mm) with 250˜300 μL PBS (or PBS+5 mM Gadoteridol). We then centrifuged the MR tubes at 300 g at 4° C. for 2 min before carrying out MRI. For AQP4 inhibition experiments, cells were pre-cultured with 6.4 μM TGN020 (Axon, CAS 51987-99-6) dissolved in PBS for 15 mins or 1 mM ouabain (Sigma, CAS 11018-89-6) for 15 mins, respectively; the PBS in the above steps was replaced with PBS+inhibitor.
The 0.5 T desktop MRI measurement system for cell culture in vitro (Pure Devices GmbH, Germany) includes: the MRI system installed on the anti-vibration platform and the autonomous nuclear magnetic tube containing live cell precipitation from the incubator, 5% CO2+95% O2 and PBS supernatant to ensure high survival rate, and the temperature monitoring optical fiber is installed. All MRI measurements were performed at room temperature (23.5+/−1° C.).
Water exchange DCE-MRI was performed with an inversion-recovery prepared turbo-spin-echo (IR-TSE) sequence and an extracellular Gd-based contrast agent, Gadoteridol (Prohance™ Bracco Diagnostics, Inc., Princeton, NJ). The following scan parameters were used in water exchange DCE-MRI: echo time (TE) 3 ms, turbo factor 16, FOV 12.8×12.8 mm^2, matrix size 32×32. Water exchange DCE-MRI was performed with two CA concentrations, 0 and 5 mM. At [CA]=5 mM, IR-TSE were measured with 13 IR delays (10 ms, 30 ms, 50 ms, 70 ms, 90 ms, 150 ms, 200 ms, 400 ms, 600 ms, 800 ms, 1 s, 5 s, 5 s) with repetition time TR varying together (TR=IR delay+5 s) and single repetition on each IR delay. At [CA]=0 mM, the longest IR delays were extended to 10 s with TR extended simultaneously (TR=IR delay+10 s) to guarantee full recovery of the longitudinal magnetization in each TR. The scan time for a single acquisition at [CA]=0 mM and 5 mM is 10 min and 5.5 min, respectively. Two acquisitions on [CA]=5 mM were acquired and averaged.
IR-TSE signal (M) at each IR delay was taken as the average signal of the cell pellet ROI. Then the signal was subtracted and normalized by the equilibrium magnetization (M0, taken as M with the longest IR delay). We define M as the normalized signal for future SS model analysis: M=(M−M0)/M0 (1)
A two-site-exchange (2SX) SS model was used here with details as described previously ^6. Briefly, the MR signal is considered as the sum of signals of two water sites—intra- and extracellular water, each site is assumed to have a similar longitude recovery rate R1, with pi and po as the mole fraction of water molecules in the intra- and extracellular space, respectively, and pi+po=1. Then the normalized IR-TSE signal M can be described with a biexponential function, M=psmexp(−tR1,sm)+(1−psm)exp(−tR1,lar) (2)
where R1,sm and R1,lar are the apparently smaller and larger R1, respectively, and psm, is the apparent fraction of MR signals showing R1,sm. The three parameters, R1,sm, R1,lar and psm, are determined by […] physical parameters including pi, the intracellular water efflux rate constant (kio), and the R1 of intracellular water (R1i), and the CA-dependent extracellular water R1 (R1o). […]

AQP4 [2] = target: T1, AQP4 (Rattus norvegicus, UniProt P47863); assay: Pharmacological inhibition of AQP4 in subcutaneous rat glioma model (C6), in vivo water exchange DCE-MRI
T1 construct: C6 cell line was subcutaneously implanted into the right leg of Sprague Dawley (SD) rats to establish a glioma animal model; from tissue; host or cells: Subcutaneous C6 glioma tumour in Sprague Dawley rats (in vivo)
T1 sequence (P47863 whole entry): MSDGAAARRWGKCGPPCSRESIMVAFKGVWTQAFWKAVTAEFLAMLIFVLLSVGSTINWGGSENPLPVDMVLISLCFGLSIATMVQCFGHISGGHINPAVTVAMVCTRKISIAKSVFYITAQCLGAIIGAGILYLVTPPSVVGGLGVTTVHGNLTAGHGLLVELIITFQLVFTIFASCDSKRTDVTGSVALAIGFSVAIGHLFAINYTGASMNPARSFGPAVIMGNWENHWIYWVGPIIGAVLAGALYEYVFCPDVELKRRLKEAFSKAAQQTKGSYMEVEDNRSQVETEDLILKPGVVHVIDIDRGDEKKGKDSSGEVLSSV
Method: All experimental protocols for animal studies were approved by the Animal Experimentation Committee of Zhejiang University. Adult (7˜8-week-old) male Sprague Dawley (SD) rats were obtained from the Laboratory Animal Center of Zhejiang University. During glioma cell introduction, rats were anesthetized with a mixture of 2% (v/v) isoflurane in air (R500IE, RWD Life Science Co., Ltd,), and then 100 μl PBS containing 5×10^6 C6 cells and 1% antibiotics (P/S) were slowly injected under the skin at the right leg. Seven to nine days after tumour implementation, the animals were taken for 7 T MRI test and the tumour was quickly removed after and fixed for IHC after MRI.
Here TGN020 was used to inhibit AQP4 in rat glioma model. For TGN020 group, each animal was treated with TGN020 (3 mg/kg, 4 ml/kg body weight) in the tail vein 15 minutes before water exchange DCE-MRI. In order to increase the solubility, before intravenous injection, TGN020 was repeatedly ultrasound and vortex at 37° C. to promote dissolution and dispersion in saline (0.9% NaCl). One day before TGN020 treatment, the same animal was treated with normal saline (4 ml/kg), and then water exchange DCE-MRI data collection was performed. In the control group, animals were treated with the same volume of normal saline on the first day and the second day. Here, the small volume infusion needs to be flushed after infusion to ensure the safety and treatment effect of rats.
In vivo water exchange DCE-MRI is achieved through clinical use of Gd-based CA (dimethylamine gadolinate, Guangzhou, China). In order to better estimate kio, the invention uses the method of two injections of CA, which improves the accuracy of kio estimation by 10 times compared with the traditional method of single injection of contrast agent. In addition, the steady-state multi-gradient echo (MGE) sequence is used to overcome the potential T2* artifacts caused by contrast agents. […] Finally, the fitting error of SS model is carefully analyzed to remove kio with large fitting error.

U87MG cell line = assay: Water exchange DCE-MRI measurement of kio in U87MG cell line with AQP4 inhibition; format: cell-based; conditions: Phase I (adaptation period), 6.4 μM TGN020, n=6
Method: as §2, with “For AQP4 inhibition experiments, cells were pre-cultured with 6.4 μM TGN020 (Axon, CAS 51987-99-6) dissolved in PBS for 15 mins or 1 mM ouabain (Sigma, CAS 11018-89-6) for 15 mins, respectively; the PBS in the above steps was replaced with PBS+inhibitor.” left out
Water exchange DCE-MRI was performed with an inversion-recovery prepared turbo-spin-echo (IR-TSE) sequence and an extracellular Gd-based contrast agent, Gadoteridol (Prohance™ Bracco Diagnostics, Inc., Princeton, NJ). […] At [CA]=5 mM, IR-TSE were measured with 13 IR delays (10 ms, 30 ms, 50 ms, 70 ms, 90 ms, 150 ms, 200 ms, 400 ms, 600 ms, 800 ms, 1 s, 5 s, 5 s) with repetition time TR varying together (TR=IR delay+5 s) and single repetition on each IR delay. […]
where R1,sm and R1,lar are the apparently smaller and larger R1, respectively, and psm, is the apparent fraction of MR signals showing R1,sm. […] For each condition (e.g., C6 at TMZ 0, 3, and 7 day), at least three samples were measured with IR-TSE at [CA]=0 mM as the baseline data. […]

C6 cells [3] = assay: Slow cycling cell (SCC) fraction by OG cell tracer in C6 cells; format: cell-based; conditions: before TMZ 6.0 (±0.4)%
Text: The present invention uses the method of cell tracer to distinguish FCC and SCC. The OG (Oregon Green 488 Carboxylic Acid Diacetate, Succinimidyl Ester) and CTV (CellTrace™ Violet reagent, ThermoFisher scientific, Invitrogen C34557) were used to distinguish FCCs (low OG or CTV intensity) and SCCs (high OG or CTV intensity, e.g., the CTV intensity>10^4) in C6 cell lines and human glioma primary cell culture, respectively. Populations of FCCs and SCCs were identified and isolated in cell cultures based on their capacity to retain OG or CTV. Briefly, the cells were first suspended in PBS containing 25 μM OG and incubated in the dark at 37° C. for 10 min. After incubation, cell samples were washed in DMEM to remove residual dye and then returned to the culturing medium for three days until imaging. Before fluorescence imaging, samples were fixed in 4% PFA for 30 min and then stained with DAPI. The fraction of SCCs was defined as the fraction of OG positive cells in the DAPI positive cells. For primary human glioma primary cell cultures, the cells were stained with 5 μM CTV (the same methods as OG) for three days. Then, the cells fluorescence intensity statistics and counts were measured by a Fluorescence Activating Cell Sorter System (FACS) (LSRFortessa X-20, BD, USA).

AQP4 [4] = assay: AQP4 expression (immunofluorescence, fluorescence intensity rfu) in C6 cell line during TMZ treatment; format: cell-based; conditions: C6 cells, 50 μM TMZ
Method: as §1
After the MRI tests, the cell line sample was immediately fixed by 4% paraformaldehyde (PFA) at room temperature for 20 min, then stored in 0.5% PFA (4° C.). For immunofluorescence (IF) testing, protocols following: samples were (1) blocked with 10% goat serum (Beyotime, CO265) for one hour at room temperature; (2) incubated with primary antibody overnight at 4° C. and the secondary antibody at room temperature for 1 h; (3) stained with DAPI (4′,6-diamidino-2-phenylindole, Sigma-Aldrich, 1:1000) at room temperature for 5 min; and (4) washed three times with PBS. […] Data were collected from two fluorescence channels: one in which DAPI was characterized with excitation/emission wavelengths 375 nm/435 to 485 nm and the other with either […] (excitation/emission 470 nm/514 to 567 nm) or green (excitation/emission 525 nm/565 to 650 nm) channels. Fluorescence images were taken from either a Fluorescence Inversion Microscope System (cellSensV1.13, Olympus, Japan) or a confocal laser scanning microscope (fv1200, Olympus, Japan).

SMILES | effect of AQP4 inhibition on kio (C6 cells [1]; C6 cells on 7th day of TMZ treatment, 6.4 μM TGN020) | average kio of the whole tumor (AQP4 [2]; TGN020 3 mg/kg tail vein 15 min before DCE-MRI, n=9, saline 6.3±0.6, 3 mg/kg) | decrease of average kio of the whole tumor (AQP4 [2]; TGN020 3 mg/kg vs saline in same animal, n=9, p=0.0246) [%] | average K^trans of the whole tumor (AQP4 [2]; TGN020 3 mg/kg, saline 0.060±0.015) [min⁻¹] | effect of AQP4 inhibition on kio (U87MG cell line) | kio (C6 cells [1]; C6 cells, seventh day of treatment, n=7) [s⁻¹] | kio (C6 cells [1]; C6 cells, third day of treatment, n=6) [s⁻¹] | decrease of kio (absolute) (C6 cells [1]; C6 cells, 7th day of TMZ treatment vs control) [s⁻¹] | decrease of kio vs control (C6 cells [1]; C6 cells, seventh day) [%] | decrease of kio vs control (C6 cells [1]; C6 cells, third day) [%] | proportion of SCC (OG+) (C6 cells [3]; seventh day of TMZ treatment) | proportion of SCC (OG+) (C6 cells [3]; third day of TMZ treatment) | decrease of AQP4 expression level, fluorescence intensity (rfu) (AQP4 [4]; seventh day of treatment) [%] | decrease of AQP4 expression level, fluorescence intensity (rfu) (AQP4 [4]; third day of treatment) [%]
O=C(Nc1nncs1)c1cccnc1 [TGN020] | could not further reduce kio; also recorded: did not lead to further reduction of kio | 5 ± 0.7 s⁻¹ and 3.5 ± 0.7 s⁻¹ | 43 | 0.045 ± 0.024 | will not lead to a significant decrease in kio; also recorded: will not lead to further reduction of kio | – | – | – | – | – | – | – | – | –
Cn1nnc2c(C(N)=O)ncn2c1=O [TMZ, temozolomide] | – | – | – | – | – | 5.8 ± 0.2 | 6.7 ± 0.8 | 4.9 | 45.5 | 37.3 | 28.9 (±0.3) % | 16.0 (±0.1) % | 85.9 | 42.5
